In patent publication US20210379151A1 (ACADEMIA SINICA, priority 2018, published 2021):
Counter-ions that a name gives are not always drawn. Like-named read-outs stand apart in the source and are kept apart here.

Key:
BBB [1] = details: mice
Procedure: For mice, a Pharmascan 7T 16-cm bore horizontal system was operated by a technician. […] Pre-contrast T1-weighted spin echo images were taken (repetition time (TR)=400 ms, echo time (TE)=10.8 ms, field of view (FOV)=2×2 cm, number of excitations (NEX)=8, slice thickness 0.8 mm). […] Post-contrast T1-weighted images were acquired one minute after contrast agent injection. The SNR was calculated by dividing the signal of a ROI (mean pixel intensity) by the standard deviation of the background noise. All image acquisition, SNR measurement and tumour volume measurement was performed by two MRI operating technicians, who were blinded to the study groups.

BBB [2] = details: mice; remark: listed apart in the source
Procedure: After 30 minutes circulation, 50 ml phosphate buffered saline (PBS) was perfused through the abdominal aorta. Organs were removed, cut into multiple smaller pieces, rinsed, dried, weighed, homogenised in 500 μl formamide, heated at 60° C. overnight and centrifuged at 21,000×g for 15 minutes. Supernatant absorbance was measured at 620 nm with background correction at 740 nm, and unknowns quantified by standard curve. […] Radu et al., J. Vis. Exp., No. 73, e50062 (2013).
Concentrations from multiple pieces of the same organ were averaged. For imaging of Evans blue extravasation, a method from del Valle and colleagues was adapted. del Valle et al., J. Neurosci. Methods, 174 (1), 42-49 (2008). Mice were intracardially perfused with 50 ml PBS followed by 50 ml of Evans blue (1% w/v) in paraformaldehyde (4% w/v). Cryolesion injury, to induce a local area of BBB damage, was used as a positive control. The brain was embedded in optimal cutting temperature compound (OCT) and cryosectioned into 20 μm thick sections for analysis.

[3] = tested on: DBTRG-05MG human glioblastoma cell line; assay: MTT assay cell viability; type: cell-based; details: VEGF up to 100 ng/ml
Procedure: DBTRG-05MG human glioblastoma cells were used in this study. DBTRG-05MG cells were routinely cultured at 37° C. in RPMI 1640 media supplemented with 10% FBS, 1 mM sodium pyruvate and 1% penicillin/streptomycin. MTT assay was carried out in accordance with the manufacturer protocol. For GBM tumour generation, 300,000 live DBTRG-05MG cells, suspended in 6 μl sterile saline, were administered to 6 week old BALB/c NU mice by stereotactic injection, […] The location was 2 mm posterior to the bregma, 1.5 mm laterally in the right cerebral hemisphere, and 2.5 mm deep from the dura, thus delivering the cells into the thalamus. Baumann et al., J. Vis. Exp., No. 67, 3-6 (2012). Bone wax was applied to the skull and the skin was closed with sutures. The success rate of xenograft tumour formation was approximately 90%. Animal deaths were recorded when the animal succumbed from tumour progression, or upon sacrifice if they met pre-determined criteria including severe cachexia (loss of >25% starting body weight), inability to feed, and lack of response to toe-pinch stimulus. Gholamin et al., Cureus, 4, 1-14 (2013).

BBB [4] = details: pigs, VEGF vs control
Excerpt: One minute later, a series of three post-contrast images were taken at the same settings. The two pre-contrast images were averaged, and the post contrast image with the highest SNR from each animal was selected for analysis.

[5] = tested on: key genes related to BBB integrity
Procedure: Samples of mouse cerebral cortex weighing approximately 50 mg were homogenised in Trizol, and total RNA extracted via the manufacturer's protocol, then quantified by Nanodrop. Samples were reverse transcribed to cDNA using a SuperScript III Reverse-Transcriptase Kit (Life Technology). OmicsGreen qPCR SYBR Green master mix (Omics Bio, Taiwan) was used to monitor amplification using an Applied Biosystems 7500 Real-Time PCR system. GAPDH was used an internal control.

brain blood vessels = tested on: brain blood vessels
Procedure: Mice were anaesthetised and perfused with PBS followed by 100 ml 4% PFA in […] phosphate buffer, pH 7.4. The brain was removed and post-fixed in 4% PFA (overnight, 4° C.) and washed in PBS. Coronal brain sections (100 μm thick) were cut on the same day with a cryomicrotome and processed free floating. Sections were immersed in 4% PFA, 2.5% glutaraldehye in PBS (overnight, 4 ° C.), washed with PBS for 5 minutes for 3 times. The specimens were immersed in 1% osmium tetroxide for 45 minutes, dehydrated and embedded with Spurr's low viscosity resin. The sample was then trimmed and sectioned using a Leica EM UC6 ultramicrotome. The ultrathin sections were then double stained with uranyl acetate and lead citrate. Images were acquired using Jeol JEM 1200EX TEM with an acceleration voltage of 80 KV.

claudin 5 = tested on: claudin 5
Excerpt: (§1) Brain tumours from mice which died between day 60 to day 70 were selected for immunofluorescence staining. […] Primary antibodies and dilutions used were anti-Ki67 (1:500 GeneTex GTX16667), Isolectin IB4-AlexaFluor 647, anti-GFAP (1:500 AbCam ab68428), anti-Iba1 (1:1000 Wako 019-19741), anti-p-glycoprotein (1:100 AbCam ab170904), anti-pdgfrβ (1:100, ab32570 Abcam), anti-claudin-5 (1:50 34-1600 Thermo Fisher Scientific), anti-CD31 (1:100 550274, BD Pharmingen). Samples were fixed in 4% w/v paraformaldehyde (PFA) pH 6.8 overnight, embedded in paraffin and sectioned. Slides were de-waxed with xylene, rehydrated through graded alcohols to water, then subjected to antigen retrieval, permeabilisation and blocking in accordance with the manufacturers' instructions. Primary antibody was applied overnight at 4° C. diluted in blocking buffer, apart from isolectin, which was applied for one hour at room temperature. Slides were washed 3× with PBS, before the second primary antibody was added and left overnight at 4° C. Secondary antibodies used were goat anti-rabbit IgG-AlexaFluor 568 (Invitrogen A-11011) and goat anti-rat IgG-AlexaFluor 488 (Invitrogen A-11006), applied for one hour at room temperature. At least three separate sections were examined, and at least three images were captured per section. For frozen sections, samples were perfusion fixed then submerged in 4% paraformaldehyde (PFA), cryoprotected in 30% w/v sucrose solution, then frozen in OCT, sectioned and stained as above, continuing on from blocking. H&E staining (Mayers) followed standard lab protocols. Images were captured using a Zeiss AxioScop microscope with AxioFluor objective lenses and AxioVision software, or a Model-Zeiss LSM 700 Stage confocal microscope.
(§2) GraphPad Prism 7.0b (Mac) was used for all statistical analysis and graph generation. For before-after analyses, paired t-test was used, and for grouped analyses one or two-way ANOVA (analysis of variance) with Tukey's post-test to correct for multiple comparisons were used. For tumour survival analyses, deaths were recorded and used to generate Kaplan-Meier survival curves which were compared using Mantel-Cox log rank tests. IVIS images of tumour luminescence and nanoparticle fluorescence were quantified using Living Image 4.0 software for Mac. MRI DICOM images were sorted in MicroDicom (Windows) and SNR calculation was performed in FIJI/ImageJ (Mac) using the measure tool. For heatmap generation, voxels within the animal were compared to the average of a 64*64 voxel region in the corner of the frame and the difference was scaled from 0 to 100, using Python. Adjustments to immunofluorescence image brightness and contrast were made to improve visual clarity and were applied equally to all images within a series. For colocalisation analysis, the raw images were analysed in Zeiss ZEN software. The threshold for no colocalisation was established using the DAPI/CD31 channels, and that threshold was then applied to the other channels. Pericyte alignment analysis was carried out using the freehand line selection tool in ImageJ. Figures were assembled in Affinity Designer (Mac).

[6] = tested on: pericyte coverage of blood vessels
Excerpt: as §1, §2

P-glycoprotein = details: all time points after VEGF
Excerpt: as §1, with “For frozen sections, samples were perfusion fixed then submerged in 4% paraformaldehyde (PFA), cryoprotected in 30% w/v sucrose solution, then frozen in OCT, sectioned and stained as above, continuing on from blocking. H&E staining (Mayers) followed standard lab protocols. Images were captured using a Zeiss AxioScop microscope with AxioFluor objective lenses and AxioVision software, or a Model-Zeiss LSM 700 Stage confocal microscope.” left out

astrocytes = details: between treatment groups
Excerpt: as §1, with “For frozen sections, samples were perfusion fixed then submerged in 4% paraformaldehyde (PFA), cryoprotected in 30% w/v sucrose solution, then frozen in OCT, sectioned and stained as above, continuing on from blocking. H&E staining (Mayers) followed standard lab protocols. Images were captured using a Zeiss AxioScop microscope with AxioFluor objective lenses and AxioVision software, or a Model-Zeiss LSM 700 Stage confocal microscope.” left out

Claudin-5 = details: after VEGF administration
BBB [7] = details: antibody 45 minutes following VEGF; preliminary evidence
Procedure: The antibody was allowed to circulate for 2 hours, then mice were perfused with 50 mL saline followed by 50 mL paraformaldehyde (4% w/v). The brain was removed, kept in 4% PFA overnight, then processed for frozen sections. As a positive control, 5 μl of antibody was injected directly into the brain prior to perfusion. Frozen sections were then stained using secondary antibody conjugated to Alexa 488. As a negative control, brain sections from an untreated animal were used. As a second positive control, a brain section from an untreated animal was stained with anti-nrCAM using conventional lab techniques (1hr room temperature). All images, aside from the stained positive control, were taken at fixed exposure lengths. The intensity of the green channel was quantified in ImageJ.

BBB [8] = assay: HPLC quantification of TMZ in brain; type: in vivo; details: mice
Procedure: Approximately 100 mg tissue was homogenised in acidified ammonium acetate (200 μl, 10 mM pH 3.5), zinc sulphate (200 μl, 100 mM) and methanol (400 μl), followed by centrifugation at 10,000×g for 30 minutes at 4° C. Supernatant was taken for HPLC analysis. Separation was carried out with a Water e2695 separation module using 80:20 ratio of acetic acid (0.1% v/v) to methanol at a flow rate of 0.8 ml/min in an Atlantis T3 3 μm HPLC column at 35° C. Detection was performed using a Waters 2489 UV/vis detector at 316 nm. Theophylline was used as an internal standard, measured at 275 nm, and results calculated as the peak ratio of TMZ to theophylline.

BBB [9] = assay: Doxorubicin biodistribution (HPLC)
Procedure: Organs were removed, dried, weighed, cut into multiple smaller pieces (approximately 100 mg tissue or 100 μl plasma) then thoroughly homogenised with 1 ml lysis buffer (0.25 M sucrose, 5 mM Tris-HCl, 1 mM MgSO4, 1 mM CaCl2, pH 6.7). 200 μl homogenate was then mixed with 1 ml acidified alcohol (70% ethanol, 0.3 N HCl), left overnight at −20° C., then centrifuged at 10,000×g for 30 minutes at 4° C. Supernatant was taken for HPLC analysis. Separation was via a Waters e2695 separation module, mobile phase 35% 10 mM KH2PO4, 65% methanol, flow rate 1 ml/min in an X-Bridge 5 μm column at 40° C. Detection used a Waters e2475 module (ex 480, em 600 nm).
Aryal et al., J. Control. Release, 204, 60-69 (2015); Kovacs et al., 2014; and Wohlfart et al., J Control Release, 154 (1), 103-107 (2011). […] The drug was allowed to circulate for two hours before the animal was perfused with saline. Doxorubicin was then extracted from the vital organs and quantified by HPLC (FIG. 8c). […] FIG. 2b.

[10] = mouse brain 45 minutes or 4 hours following VEGF
[11] = GBM tumour region, VEGF pre-treatment

VEGF
increase in average SNR of the cortex, post- vs pre-contrast (BBB [1]; Gd given 45 minutes following VEGF): 16% | SNR enhancement of the cortex, post- vs pre-contrast (BBB [1]; Gd given 4 hours after VEGF): less than 5% | signal enhancement of area surrounding central cerebral sinus (BBB [1]; VEGF vs control groups): no significant difference between the groups | Evans blue uptake in kidney (BBB [2]; 45 minutes after VEGF): increase | concentration of Evans blue in brain tissue compared to control-treated animals (BBB [2]; Evans blue 45 minutes after VEGF, 30 minutes circulation): 4.85 fold | concentration of Evans blue in brain tissue compared to control (BBB [2]; Evans blue 4 hours following VEGF): no increase was detected | effect on DBTRG-05MG cell viability [3]: did not affect | SNR enhancement of the central cerebral sinus (BBB [4]): no significant difference | p-glycoprotein gene expression (Abcb1a) ([5]; following VEGF at the given dose): No change | expression of BBB transporters Slc2a1 (GLUT-1) and Slc6a8 (CRT) [5, 10]: increase | expression of tight junction components Tjp2 (ZO-2) and Cldn5 (Claudin 5) [5, 10]: decrease | morphology of brain blood vessels (TEM) (brain blood vessels; 15 minutes following VEGF injection): slightly dilated and lacking adjacent pericytes | morphology of brain blood vessels (TEM) (brain blood vessels; 45 minutes following VEGF): no longer dilated | morphology of brain blood vessels (TEM) (brain blood vessels; four hours following VEGF): both vessels and pericytes appeared normal | colocalisation of claudin 5 and CD31 (claudin 5; [11]): 48.5% | colocalisation of claudin 5 and CD31 (claudin 5; healthy brain, 45 minutes following VEGF): 55.8% | colocalisation of claudin 5 and CD31 (claudin 5; healthy brain, 4 hours following VEGF): 42.7% | pericyte coverage of blood vessels [6, 11]: 28.9% | pericyte coverage of blood vessels ([6]; healthy brain, 15 minutes after VEGF): 57.6% | pericyte coverage of blood vessels ([6]; healthy brain, 45 minutes after VEGF): 86.2% | pericyte coverage of blood vessels ([6]; healthy brain, 4 hours after VEGF): 83.0% | P-glycoprotein staining (P-glycoprotein): appeared uniformly on the membrane of blood vessels at all time points | astrocyte morphology (GFAP) (astrocytes): no obvious change | Claudin-5 protein expression (Western blot) (Claudin-5): trend towards reduced protein expression | passage of systemically injected IgG antibody into the brain (BBB [7]): allows the passage of systemically injected IgG antibody into the brain

Cn1nnc2c(C(N)=O)ncn2c1=O [TMZ, Temozolomide]
brain concentration of TMZ after VEGF pre-treatment (BBB [8]; TMZ 20 mg/kg): did not further enhance | TMZ concentration in the brain after VEGF pre-treatment (BBB [8]; VEGF or 10-fold higher VEGF): does not significantly increase

COc1cccc2c1C(=O)c1c(O)c3c(c(O)c1C2=O)C[C@@](O)(C(=O)CO)C[C@@H]3O[C@H]1C[C@H](N)[C@H](O)[C@H](C)O1 [Doxorubicin, Doxorubicin Hydrochloride]
doxorubicin concentration in brain after VEGF pre-treatment vs. control (BBB [9]; 8 mg/kg 45 minutes after VEGF, mice): statistically significant increase | systemic Doxorubicin entering the brain (BBB [9]; healthy control mice, 8 mg/kg, two hours circulation): less than 0.1%
